IC50 data for 21 compounds are collected here from patent US10072001B2, “Tank-binding kinase inhibitor compounds” (Gilead Sciences, Inc., priority 2014, dated 2018).

For assay [1], the target named is TBK1 (Homo sapiens (Human), UniProt Q9UHD2). Put plainly: TR-FRET kinase assay, TBK1. As to conditions: read-out: TBK1-IC50; full length recombinant TBK1 2.5 nM, 2x Km ATP, 1 μM peptide, 240 min at 25° C.; geometric mean of minimum four determinations. For orientation: TR-FRET usually uses a lanthanide donor and a delayed reading to cut background.
TBK1, sequence (Q9UHD2 whole entry): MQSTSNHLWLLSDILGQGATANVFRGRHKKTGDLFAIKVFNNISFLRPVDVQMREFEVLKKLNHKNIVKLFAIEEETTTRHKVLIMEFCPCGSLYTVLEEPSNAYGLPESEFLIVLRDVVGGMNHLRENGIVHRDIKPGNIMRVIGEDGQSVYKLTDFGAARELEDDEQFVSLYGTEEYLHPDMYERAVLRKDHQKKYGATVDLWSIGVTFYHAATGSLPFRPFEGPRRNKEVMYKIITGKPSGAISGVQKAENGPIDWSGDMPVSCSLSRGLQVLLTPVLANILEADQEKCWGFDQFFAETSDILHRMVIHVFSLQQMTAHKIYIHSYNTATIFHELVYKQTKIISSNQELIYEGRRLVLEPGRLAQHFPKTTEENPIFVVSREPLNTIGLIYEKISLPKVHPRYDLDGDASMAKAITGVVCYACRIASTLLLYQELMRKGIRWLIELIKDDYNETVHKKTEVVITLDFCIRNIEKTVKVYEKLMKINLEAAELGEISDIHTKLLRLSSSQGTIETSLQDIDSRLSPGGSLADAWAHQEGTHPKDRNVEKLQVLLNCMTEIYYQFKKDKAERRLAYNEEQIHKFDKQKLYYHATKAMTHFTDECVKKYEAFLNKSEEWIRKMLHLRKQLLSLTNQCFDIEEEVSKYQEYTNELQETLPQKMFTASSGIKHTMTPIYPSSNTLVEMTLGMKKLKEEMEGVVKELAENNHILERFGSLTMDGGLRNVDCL
Experimental: Enzymatic activity of IKKε and TBK1 was measured using a homogeneous time resolved fluorescence resonance energy transfer (TR-FRET) assay that monitors enzyme dependent phosphorylation of a biotinylated serine/threonine peptide substrate. […] TBK1 and IKKs were expressed and purified as full length recombinant proteins. Detection reagents for the assay were purchased from Cisbio. […] After an assay reaction time of 240 minutes at 25° C., reactions were terminated with EDTA.
Amount of phosphorylated peptide was determined by the addition of 125 nM streptavidin XL665 and europium cryptate labeled anti-phospho monoclonal antibody and the resulting TR-FRET signal was recorded on an Envision plate reader (Ex: 340 nm; Em: 615/665 nm; 100 μs delay and 200 μs read window). […] All IC50 values represent geometric mean values of a minimum of four determinations.
Assay [2] addresses IKKε (Homo sapiens (Human), UniProt Q14164). Put plainly: TR-FRET kinase assay, IKKε. It is filed as biochemical. As to conditions: full length recombinant IKKε 0.3 nM, 2x Km ATP, 1 μM peptide, 240 min at 25° C.; geometric mean of minimum four determinations. From the text:
Biological Assay for TBK1 and IKKs:

IKKε, sequence (Q14164 whole entry): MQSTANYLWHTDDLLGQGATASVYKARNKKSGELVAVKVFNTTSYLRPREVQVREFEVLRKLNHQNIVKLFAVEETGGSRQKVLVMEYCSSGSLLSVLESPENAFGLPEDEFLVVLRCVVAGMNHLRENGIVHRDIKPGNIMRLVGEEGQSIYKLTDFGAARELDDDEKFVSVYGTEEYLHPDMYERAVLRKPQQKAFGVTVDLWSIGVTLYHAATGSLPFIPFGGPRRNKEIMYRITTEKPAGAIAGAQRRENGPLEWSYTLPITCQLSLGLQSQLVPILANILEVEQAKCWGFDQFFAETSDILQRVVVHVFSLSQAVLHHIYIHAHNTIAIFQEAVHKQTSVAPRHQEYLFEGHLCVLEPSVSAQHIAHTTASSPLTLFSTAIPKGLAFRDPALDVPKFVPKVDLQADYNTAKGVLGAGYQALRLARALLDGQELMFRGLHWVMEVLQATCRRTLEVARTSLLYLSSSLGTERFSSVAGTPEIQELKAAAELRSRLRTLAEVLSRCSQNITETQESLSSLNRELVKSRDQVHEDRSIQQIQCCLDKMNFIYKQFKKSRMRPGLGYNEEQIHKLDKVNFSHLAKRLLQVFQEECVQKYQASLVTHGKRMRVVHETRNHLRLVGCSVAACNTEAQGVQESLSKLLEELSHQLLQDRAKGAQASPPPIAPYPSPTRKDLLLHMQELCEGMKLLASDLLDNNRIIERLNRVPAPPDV

As a reminder, the IC50 is the concentration needed to halve the response being measured. In the case of `N#Cc1cc(-c2ccnc3[nH]c(-c4ccc(N5CCOCC5)cc4)cc23)ccc1OC1COC1` [Example 235, 5-(2-(4-morpholinophenyl)-1H-pyrrolo[2,3-b]pyridin-4-yl)-2-(oxetan-3-yloxy)benzonitrile], the results for the IC50 in assay [1] and in assay [2] were 9.27 nM and 103 nM, respectively.
As for `CC(C)(C)OC(=O)N1CC=C(c2cc3c(-c4ccc(OC5CCOCC5)c(C#N)c4)ccnc3[nH]2)C1` [Example 36, tert-butyl 3-(4-(3-cyano-4-((tetrahydro-2H-pyran-4-yl)oxy)phenyl)-1H-pyrrolo[2,3-b]pyridin-2-yl)-2,5-dihydro-1H-pyrrole-1-carboxylate], the 50% inhibitory concentration (IC50) was determined as 38.4 nM in assay [1] and 79 nM in assay [2].
As for `N#Cc1cc(-c2ccnc3[nH]c(-c4ccc(N5CCOCC5)nc4)cc23)ccc1OC1CCOCC1` [Example 81, 5-(2-(6-morpholinopyridin-3-yl)-1H-pyrrolo[2,3-b]pyridin-4-yl)-2-((tetrahydro-2H-pyran-4-yl)oxy)benzonitrile], the IC50 in assay [1] amounted to 4.1 nM; in assay [2], 9.9 nM.
The corresponding values for `COc1cc(-c2cc3c(-c4ccc(OC5CCNCC5)c(C#N)c4)ncnc3[nH]2)ccc1N1CCOCC1` [Example 122, 5-(6-(3-methoxy-4-morpholinophenyl)-7H-pyrrolo[2,3-d]pyrimidin-4-yl)-2-(piperidin-4-yloxy)benzonitrile] are 21.2 nM and 115 nM.
`CC(C)(O)c1ccc(-c2cc3c(-c4cc(C#N)c(OC5CCOCC5)cn4)ccnc3[nH]2)cc1` [Example 170, 2-(2-(4-(2-Hydroxypropan-2-yl)phenyl)-1H-pyrrolo[2,3-b]pyridin-4-yl)-5-((tetrahydro-2H-pyran-4-yl)oxy)isonicotinonitrile]: the IC50 in assay [1] is 3.84 nM; in assay [2] it was 8.18 nM.
The corresponding values for `CN(C)CC(=O)N1CC[C@@H](Oc2ccc(-c3ccnc4[nH]c(-c5ccc(N6CCOCC6)cc5)cc34)cc2C#N)C1` [Example 30, (R)-2-((1-(2-(dimethylamino)acetyl)pyrrolidin-3-yl)oxy)-5-(2-(4-morpholinophenyl)-1H-pyrrolo[2,3-b]pyridin-4-yl)benzonitrile] are 70.7 nM and 135 nM.
With `CS(=O)(=O)N1CCN(c2ccc(-c3cc4c(-c5ccc(OC6CCOCC6)c(C#N)c5)ccnc4[nH]3)cc2)CC1` [Example 55, 5-(2-(4-(4-(methylsulfonyl)piperazin-1-yl)phenyl)-1H-pyrrolo[2,3-b]pyridin-4-yl)-2-((tetrahydro-2H-pyran-4-yl)oxy)benzonitrile], the IC50 in assay [1] is 2.84 nM; in assay [2], more than 1000 nM.
The corresponding values for `N#Cc1cc(-c2ncnc3[nH]c(-c4ccc(Cn5ccnc5)cc4)cc23)ccc1OC1CCOCC1` [Example 114, 5-(6-(4-((1H-imidzol-1-yl)methyl)phenyl)-7H-pyrrolo[2,3-d]pyrimidin-4-yl)-2-((tetrahydro-2H-pyran-4-yl)oxy)benzonitrile] are 5.13 nM and 5.79 nM.
The corresponding values for `N#Cc1cc(-c2ncnc3[nH]c(-c4ccc(OCCN5CCCC5)cc4)nc23)ccc1OC1CCN(C(=O)CO)CC1` [Example 233, 2-((1-(2-hydroxyacetyl)piperidin-4-yl)oxy)-5-(8-(4-(2-(pyrrolidin-1-yl)ethoxy)phenyl)-9H-purin-6-yl)benzonitrile] are 3.33 nM and 2.04 nM.
`N#Cc1cc(-c2ccnc3[nH]c(-c4ccc(N5CC6(COC6)C5)cc4)cc23)ccc1OC1CCOCC1` [Example 46, 5-(2-(4-(2-oxa-6-azaspiro[3.3]heptan-6-yl)phenyl)-1H-pyrrolo[2,3-b]pyridin-4-yl)-2-((tetrahydro-2H-pyran-4-yl)oxy)benzonitrile]: in assay [2], the IC50 is 13 nM.
Consider `N#Cc1cc(-c2ccnc3[nH]c(C#CC4CCOCC4)cc23)ccc1OC1CCOCC1` [Example 35, 5-(2-((tetrahydro-2H-pyran-4-yl)ethynyl)-1H-pyrrolo[2,3-b]pyridin-4-yl)-2-((tetrahydro-2H-pyran-4-yl)oxy)benzonitrile], for which, in assay [1], the IC50 came to 52.8 nM.
Same read-out and setting: next, `COc1cc(-c2cc3c(-c4ccc(OC5CCOCC5)c(C#N)c4)ncnc3[nH]2)ccc1N1CCOCC1` [Example 136, 5-(6-(3-methoxy-4-morpholinophenyl)-7H-pyrrolo[2,3-d]pyrimidin-4-yl)-2-((tetrahydro-2H-pyran-4-yl)oxy)benzonitrile]: 1 nM.
With `N#Cc1cc(-c2ncnc3[nH]ccc23)ccc1OC1CCOCC1` [Example 108, 5-(7H-pyrrolo[2,3-d]pyrimidin-4-yl)-2-((tetrahydro-2H-pyran-4-yl)oxy)benzonitrile], the 50% inhibitory concentration (IC50) in assay [2] is 2230 nM.
For the compound `N#Cc1cc(-c2ncnc3[nH]c(-c4ccc(N5CCN(CC(F)F)CC5)cc4)cc23)ccc1OC1CCN(C(=O)CO)CC1` [Example 264, 5-(6-(4-(4-(2,2-difluoroethyl)piperazin-1-yl)phenyl)-7H-pyrrolo[2,3-d]pyrimidin-4-yl)-2-((1-(2-hydroxyacetyl)piperidin-4-yl)oxy)benzonitrile], in assay [1], the IC50 was 0.91 nM.
In the case of `Cc1ncc(-c2nc3c(-c4ccc(OC5CCOCC5)c(C#N)c4)ncnc3[nH]2)s1` [Example 231, 5-(8-(2-methylthiazol-5-yl)-9H-purin-6-yl)-2-((tetrahydro-2H-pyran-4-yl)oxy)benzonitrile], in assay [1], the IC50 turned out to be 52.8 nM.
Same read-out and setting: the same measure for `CC(C)(O)c1ccc(-c2cc3c(-c4ccc(OC5CCN(C(=O)CO)CC5)c(C#N)c4)ncnc3[nH]2)cn1` [Example 132, 2-((1-(2-hydroxyacetyl)piperidin-4-yl)oxy)-5-(6-(6-(2-hydroxypropan-2-yl)pyridin-3-yl)-7H-pyrrolo[2,3-d]pyrimidin-4-yl)benzonitrile]: 3.26 nM.
As for `N#Cc1cc(-c2ncnc3[nH]c(C4=CCC5(CC4)OCCO5)cc23)ccc1OC1CCN(C(=O)CO)CC1` [Example 175, 5-(6-(1,4-dioxaspiro[4.5]dec-7-en-8-yl)-7H-pyrrolo[2,3-d]pyrimidin-4-yl)-2-((1-(2-hydroxyacetyl)piperidin-4-yl)oxy)benzonitrile], the IC50 in assay [2] is 5.84 nM.
As for `N#Cc1cc(-c2cc3c(-c4ccc(OC5CCOCC5)c(C#N)c4)ncnc3[nH]2)ccc1OC1CCOCC1` [Example 223, 5,5′-(7H-pyrrolo[2,3-d]pyrimidine-4,6-diyl)bis(2-((tetrahydro-2H-pyran-4-yl)oxy)benzonitrile)], the IC50 in assay [1] turned out to be 2.84 nM.
Take `COC(=O)c1ccc(-c2cc3c(-c4ccc(OC5CCOCC5)c(C#N)c4)ccnc3[nH]2)cc1` [Example 238, Methyl 4-(4-(3-cyano-4-((tetrahydro-2H-pyran-4-yl)oxy)phenyl)-1H-pyrrolo[2,3-b]pyridin-2-yl)benzoate]: the IC50 in assay [2] was 1000 nM.
Take `N#Cc1cc(-c2ncnc3[nH]c(-c4ccc(N5CCOCC5)nc4)cc23)ccc1OC1CCOCC1` [Example 155, 5-(6-(6-morpholinopyridin-3-yl)-7H-pyrrolo[2,3-d]pyrimidin-4-yl)-2-((tetrahydro-2H-pyran-4-yl)oxy)benzonitrile]: the IC50 in assay [1] was 4.39 nM.
As to `N#CCC(=O)N1CCN(c2ccc(-c3cc4c(-c5ccc(OC6CCOCC6)c(C#N)c5)ccnc4[nH]3)cc2)CC1` [Example 57, 5-(2-(4-(4-(2-cyanoacetyl)piperazin-1-yl)phenyl)-1H-pyrrolo[2,3-b]pyridin-4-yl)-2-((tetrahydro-2H-pyran-4-yl)oxy)benzonitrile], the 50% inhibitory concentration (IC50) in assay [2] turned out to be 2.98 nM.
